Assay results taken from patent publication US8771754B2, “Use of GSK3 inhibitors in combination with radiation therapies” (priority 2004, dated 2014).

Test system: HT-22 hippocampal neuronal cells
Assay: Apoptosis assay, Annexin V-FITC and propidium iodide flow cytometry
Type: cell-based, mouse
Settings: for radiation-induced apoptosis, cells positive for apoptosis: HT-22, pretreated (LiCl 3 mM 7 days; inhibitor VIII 1 μM or SB415286 25 μM 24 h), 3 Gy, 24 h after irradiation, 3 Gy alone 53%, untreated 8%
Experimental: Apoptosis assays. HT-22 cells were treated with LiCl (3 mM) for 7 days, with GSK3β inhibitor VIII (1 μM) or SB415286 (25 μM) for 24 hours prior to irradiation. Camptothecin (5 μM) was added to the HT-22 cells 6 hours prior to harvest as a positive control for apoptosis. The HT-22 cells with or without the inhibitors were irradiated with 3 Gy and harvested 24 hours post irradiation. Annexin V-FITC (5 ng) and propidium iodide (50 ng) were added to […]. Stained cells were analyzed by flow cytometry. The fraction of cells in each of the four gating windows (Q1-4) was calculated.
Apoptosis was studied in irradiated mouse HT-22 hippocampal neuronal cells pretreated with LiCl, GSK3β inhibitor VIII or SB415286. The fraction of cells in each of the four gating windows (Q1-4) was calculated and tabulated as the mean and SEM of 3 separate experiments. Camptothecin served as positive control for apoptosis and was added to HT-22 cells prior to staining for apoptosis. Camptothecin positive control induced apoptosis in 78.8% of cells. In comparison, 3 Gy irradiation induced apoptosis in 53% of cells, while 8% of untreated control cells stained positive for apoptosis (FIG. 2B). […] Lithium, as a nonspecific neuroprotector, attenuated radiation-induced apoptosis to 21.9% of cells (P=0.01, 3 Gy vs. 3 Gy+LiCl). The radioprotective effect of lithium in HT-22 neuronal cells was also analyzed by morphologic analysis using DAPI staining.

Row | SMILES | apoptosis induced by positive control (HT-22, camptothecin 5 μM added 6 hours prior to harvest) [%] | radiation-induced apoptosis, cells positive for apoptosis [%]
1 | CC[C@@]1(O)C(=O)OCc2c1cc1n(c2=O)Cc2cc3ccccc3nc2-1 [Camptothecin] | 78.8 | 
2 | O=C1NC(=O)C(c2ccccc2[N+](=O)[O-])=C1Nc1ccc(O)c(Cl)c1 [SB415286] |  | 41.4
3 | COc1ccc(CNC(=O)Nc2ncc([N+](=O)[O-])s2)cc1 [GSK3β inhibitor VIII] |  | 33.9
